Columns and labels:
GBM6 glioblastoma cells = experiment: Cell proliferation (WST-1), primary non-established GBM6 cells; type: cell-based, human
Procedure: U373-MG and LN229 human glioblastoma cells (ATTC, Manassas, Va.) were cultured in DMEM supplemented with 5% FCS. Primary human non-established glioblastoma GBM6 cells were kindly provided by Dr. C. David James and were passaged as tumors in nude mice and subcultured for 1 week following isolation from tumors in media containing 2% FCS to prevent growth of contaminating rodent fibroblasts and then cultured in 5% FCS as described (Yacoub et al., Mol Cancer Ther 7:314-329, 2008). LN229 cells were transfected with H2B-EGFP plasmid and stable colonies were isolated following selection with 1 mg/ml of G418. LN229-H2B-EGFP cells were passaged as tumors as described above.
Cells were plated at 10,000 cells/well in 48-well plates and allowed to attach for 24 h. Cell proliferation was measured at the indicated times with WST-1 and absorbance was measured in a plate reader at 450 nm with background subtraction at 630 nm. Cell death was detected by trypan blue exclusion assays in which the percent of blue dye incorporating cells were determined using a light microscope and a hemacytometer as described (Yacoub et al. Mol Cancer Ther 7:314-329, 2008). Apoptotic cell death was measured by staining cell nuclei with the Hoechst dye bisbenzimide and apoptotic cells were identified by condensed, fragmented nuclear regions as described previously (Sankala et al. Cancer Res 67:10466-10474, 2007). […]

U118 cells = experiment: Proliferation of U118 glioblastoma cells; type: cell-based, human
Procedure: Cells were plated at 10,000 cells/well in 48-well plates and allowed to attach for 24 h. Cell proliferation was measured at the indicated times with WST-1 and absorbance was measured in a plate reader at 450 nm with background subtraction at 630 nm. Cell death was detected by trypan blue exclusion assays in which the percent of blue dye incorporating cells were determined using a light microscope and a hemacytometer as described (Yacoub et al. Mol Cancer Ther 7:314-329, 2008). Apoptotic cell death was measured by staining cell nuclei with the Hoechst dye bisbenzimide and apoptotic cells were identified by condensed, fragmented nuclear regions as described previously (Sankala et al. Cancer Res 67:10466-10474, 2007). A minimum of 300 cells was scored.

GBM6 = experiment: In vitro invasion, GBM6 cells; type: cell-based, human
Procedure: Boyden chamber invasion assays were carried out essentially as described (Shida et al. Cancer Res 68:6569-6577, 2008).

Akt = experiment: Western blotting of Akt phosphorylation, LN229 cells; type: cell-based, human; conditions: LN229, serum, LPA or EGF stimulated, 20 minutes treatment
Procedure: (§1) Cells were scraped in buffer containing 20 mM Tris-HCl, pH 7.5, 50 mM NaCl, 50 mM NaF, 30 mM Na4P2O7, 20 mM 2-glycerophosphate, 1 mM Na3VO4, 5 mM EDTA, 2 mM EGTA, 0.5% SDS and protease inhibitor cocktail (1:200 dilution) and probe-sonicated. Equal amounts of protein determined with bicinchoninic acid (Pierce, Rockford, Ill.), were resolved by SDS-PAGE and transferred to nitrocellulose membranes. Blots were blocked with 5% non-fat dry milk in Tris-buffered saline containing 0.1% […] (TBST) for 1 h at room temperature, and then incubated with primary antibodies (1:3,000 in 1% BSA) overnight, followed by the appropriate HRP-conjugated secondary antibodies (1:40,000 in 1% BSA). Immunocomplexes were visualized by enhanced chemiluminescence (Pierce).

p70S6K = experiment: Western blotting of p70S6K phosphorylation, LN229 cells; type: cell-based, human
Procedure: as §1

ERK1/2 [1] = experiment: Western blotting of ERK1/2 phosphorylation, LN229 cells; type: cell-based, human; conditions: LN229, serum, LPA, EGF, short-term
Procedure: as §1

ERK1/2 [2] = experiment: Western blotting of ERK1/2 activation, U373 cells; type: cell-based, human
Procedure: as §1

ERK1/2 [3] = experiment: Western blotting of pERK1/2, GBM6 cells; type: cell-based, human
Procedure: as §1

[4] = test system: S1P, sphingosine and ceramide levels; experiment: Sphingolipid metabolite levels by LC-ESI-MS/MS after SK1-I; type: cell-based
Description: Lipids were extracted and phosphorylated and unphosphorylated sphingoid bases, individual ceramide acyl chain species, as well as SK1-I and its metabolites were quantified by liquid chromatography, electrospray ionization-tandem mass spectrometry (LC-ESI-MS/MS) as described previously (Merrill et al. Methods 36:207-224, 2005).

LN229 cells = experiment: Colony formation (clonogenic) assay, LN229 cells; type: cell-based, human
Procedure: Cells were plated at a density of 1000 cells/well in a 12-well plate in DMEM containing 5% serum. After 8 h, SK1-I was added and 2 h later, the media was changed. After 10 days, cells were fixed in 4% paraformaldehyde and stained with crystal violet (0.05%). Colonies larger then 0.5 mm in diameter were counted.

[5] = test system: intracranial LN229-H2B-EGFP tumors; experiment: Intracranial LN229 xenograft tumors in nu/nu mice; type: in vivo
Procedure: Adult female NCI nu/nu mice were anesthetized and LN229-H2B-EGFP cells (2.5×10^4 in 1 μl PBS) were stereotactically implanted in the putamen region (1 mm anterior and 2.5 mm lateral to the Bregma at the depth of 3.5 mm at a rate of 0.1 μl/min). Mice were monitored for recovery until complete wakening. 20 days after implantation, mice were injected i.p. with SK1-I (20 mg/kg in PBS) every other day. Mice were observed daily following tumor implantation and were euthanized on reaching a moribund state.
Experiments were repeated at least three times with consistent results. For each experiment, data from triplicate samples were expressed as means±S.D. Statistics were performed by single factor ANOVA, and p<0.05 was considered significant. The Kaplan-Meier estimator was used to generate the survival curves and to estimate the median survival values. Differences between survival curves were compared using a log-rank test.

[6] = test system: blasts obtained from patients with AML; conditions: U.S. Ser. No. 12/387,228; cited from earlier work

CCCCCc1ccc(/C=C/[C@H](O)[C@@H](CO)NC)cc1 [SK1-I, (2R,3S,4E)-N-methyl-5-(4′-pentylphenyl)-2-aminopent-4-ene-1,3-diol]
cell growth (GBM6 glioblastoma cells; GBM6, 10 μM, presence of serum): markedly reduced growth
lowest concentration with significant growth inhibition (GBM6 glioblastoma cells; GBM6, absence of serum): 1 µM
proliferation (U118 cells): suppress proliferation
serum- and EGF-induced invasion (GBM6): suppressed
phosphorylation of Akt at Thr308 and Ser473 (Akt): markedly suppressed
activation of p70S6K (Thr389) (p70S6K): reduced activation
stimulated ERK1/2 phosphorylation at Thr202/Tyr204 (ERK1/2 [1]): did not significantly affect
EGF- and serum-induced ERK1/2 activation (ERK1/2 [2]): did not reduce
pERK1/2 levels (ERK1/2 [3]): without affecting
ceramide levels, particularly C16-ceramide ([4]; after 24 h of treatment): increased markedly
S1P levels ([4]; within 20 min after addition): significant reduction
ceramide levels ([4]; within 1 h after addition): without major changes
decrease in S1P levels ([4]; within 1 h after addition): 70%
sphingosine levels ([4]; within 1 h after addition): increase
long-term survival in clonogenic assays (LN229 cells): markedly suppressed
symptoms of tumor burden ([5]; 20 mg/kg i.p. every other day from day 20, when vehicle mice were moribund (day 43-49)): None of the SK1-I treated mice showed any symptoms
tumors on T2W MRI ([5]; day 48): no tumors were evident
tumor on gadolinium enhanced MRI ([5]; day 48, site of injection): small tumor
Kaplan-Meier survival ([5]; i.p. administration, vs vehicle control): significant survival benefit
invading GFP-labeled LN229 cells in intracranial tumor sections ([5]; vs vehicle treated animals): significantly fewer invading cells
apoptosis [6]: markedly induced apoptosis

From patent US10945971B2, “Sphingosine kinase type 1 inhibitors and uses thereof” (Enzo Therapeutics, Inc., priority 2008, dated 2021)
